The subject of test [1] is PC-6. Description: Cytotoxic activity against PC-6 human small cell lung cancer. Type of test: functional.
Test [2] concerns PC-6. Description: Cytotoxic activity against PC-6/VCR29-9 vincristine resistant cell line expressing P-gp. It is filed as functional. The settings on record: Homo sapiens.
In test [3] the test system is PC-12. Description: Cytotoxic activity against PC-12 human non-small cell lung cancer cell line.
In test [4] the test system is PC-12. In words: Cytotoxic activity against PC-12 human non-small cell lung cancer cell line. It is filed as functional. The settings on record: Rattus norvegicus.
The test system of test [5] is Mus musculus. Description: Antitumor activity against B16 melanoma in mice at dose of 33.3 mg/kg by iv administration and body weight loss is reported. Type of test: functional.
Test [6] relates to Mus musculus. Description: Antitumor activity against B16 melanoma in mice at dose of 22.2 mg/kg by po administration and body weight loss is reported. It is filed as functional.
The subject of test [7] is Mus musculus. Description: Antitumor activity against B16 melanoma in mice at dose of 33.3 mg/kg by iv administration and IR value is reported. Type of test: functional.
The subject of test [8] is Mus musculus. In words: Antitumor activity against B16 melanoma in mice at dose of 112.5 mg/kg by po administration and IR value is reported. Type of test: functional.
The test system of test [9] is Mus musculus. In words: Antitumor activity against B16 melanoma at dose of 75 mg/kg by po administration in mice and mortality rate is reported. Type of test: functional.
Test [10] relates to Mus musculus. Description: Antitumor activity against B16 melanoma at dose of 75 mg/kg by iv administration in mice and mortality rate is reported. It is filed as functional.
Test [11] deals with Mus musculus. Description: Antitumor activity against B16 melanoma in mice at dose of 33.3 mg/kg by po administration and body weight loss is reported. Type of test: functional.
For test [12], the system named is Mus musculus. Description: Antitumor activity against B16 melanoma in mice at dose of 22.2 mg/kg by iv administration and IR value is reported. It is filed as functional.
Test [13] concerns Mus musculus. In words: Antitumor activity against B16 melanoma in mice at dose of 75 mg/kg by po administration and body weight loss is reported. Type of test: functional.
The subject of test [14] is Mus musculus. Description: Antitumor activity against B16 melanoma at dose of 22.2 mg/kg by po administration in mice and mortality rate is reported. It is filed as functional.
The test system of test [15] is Mus musculus. Description: Antitumor activity against B16 melanoma at dose of 50 mg/kg by iv administration in mice and mortality rate is reported. Type of test: functional.
The test system of test [16] is Mus musculus. Description: Antitumor activity against B16 melanoma in mice at dose of 33.3 mg/kg by po administration and IR value is reported. Type of test: functional.
Test [17] concerns Mus musculus. Description: Antitumor activity against B16 melanoma in mice at dose of 75 mg/kg by po administration and IR value is reported. Type of test: functional.
In test [18] the test system is Mus musculus. Description: Antitumor activity against B16 melanoma in mice at dose of 50 mg/kg by iv administration and body weight loss is reported. It is filed as functional.
In test [19] the test system is Mus musculus. In words: Antitumor activity against B16 melanoma in mice at dose of 75 mg/kg by iv administration and body weight loss is reported. Type of test: functional.
The test system of test [20] is Mus musculus. Description: Antitumor activity against B16 melanoma in mice at dose of 112.5 mg/kg by po administration and body weight loss is reported. It is filed as functional.
In test [21] the test system is Mus musculus. In words: Antitumor activity against B16 melanoma at dose of 33.3 mg/kg by po administration in mice and mortality rate is reported. Type of test: functional.
Test [22] has as its system Mus musculus. Description: Antitumor activity against B16 melanoma in mice at dose of 50 mg/kg by iv administration and IR value is reported. It is filed as functional.
Test [23] deals with Mus musculus. Description: Antitumor activity against B16 melanoma in mice at dose of 22.2 mg/kg by po administration and IR value is reported. Type of test: functional.
Test [24] deals with Mus musculus. Description: Antitumor activity against B16 melanoma in mice at dose of 22.2 mg/kg by iv administration and body weight loss is reported. It is filed as functional.
The test system of test [25] is Mus musculus. Description: Antitumor activity against B16 melanoma at dose of 33.3 mg/kg by iv administration in mice and mortality rate is reported. It is filed as functional.
The test system of test [26] is Mus musculus. In words: Antitumor activity against B16 melanoma at dose of 112.5 mg/kg by po administration in mice and mortality rate is reported. Type of test: functional.
Test [27] deals with Mus musculus. In words: Antitumor activity against B16 melanoma at dose of 100 mg/kg by iv administration in mice and mortality rate is reported. Type of test: functional.
The subject of test [28] is Mus musculus. In words: Antitumor activity against B16 melanoma in mice at dose of 50 mg/kg by po administration and body weight loss is reported. It is filed as functional.
Test [29] concerns Mus musculus. Description: Antitumor activity against B16 melanoma in mice at dose of 75 mg/kg by iv administration and IR value is reported. It is filed as functional.
For test [30], the system named is Mus musculus. In words: Antitumor activity against B16 melanoma at dose of 50 mg/kg by po administration in mice and mortality rate is reported. It is filed as functional.
The subject of test [31] is Mus musculus. Description: Antitumor activity against B16 melanoma in mice at dose of 50 mg/kg by po administration and IR value is reported. Type of test: functional.
The subject of test [32] is Mus musculus. Description: Antitumor activity against B16 melanoma in mice at dose of 600 mg/kg by po administration and IR value is reported. It is filed as functional.
Test [33] deals with Mus musculus. Description: Antitumor activity against B16 melanoma in mice at dose of 100 mg/kg by iv administration and body weight loss is reported. It is filed as functional.
For test [34], the system named is Mus musculus. In words: Antitumor activity against B16 melanoma at dose of 600 mg/kg by po administration in mice and mortality rate is reported. Type of test: functional.
Test [35] deals with Mus musculus. In words: Antitumor activity against B16 melanoma in mice at dose of 600 mg/kg by po administration and body weight loss is reported. It is filed as functional.
Test [36] deals with Mus musculus. Description: Antitumor activity against B16 melanoma in mice at dose of 100 mg/kg by iv administration and IR value is reported. It is filed as functional.

Converted amounts (≈) assume the structure as drawn.

In general, GI50 refers to the concentration that inhibits growth by half. Lower therefore signals more potent growth inhibition. `CC(=O)O[C@@]12CO[C@@H]1C[C@@H](F)[C@@]1(C)C(=O)[C@H](CCN3CCOCC3)C3=C(C)[C@@H](OC(=O)[C@H](O)[C@@H](NC(=O)OC(C)(C)C)c4ccccc4)C[C@@](O)([C@@H](OC(=O)c4ccccc4)C12)C3(C)C` (some centres not stated): the GI50 came to 0.379 ng/mL (≈ 0.418 nM) in the test with PC-6 [1], 0.0162 µg/mL (≈ 17.9 nM) in the test on PC-6 [2] and 2.55 ng/mL (≈ 2.81 nM) in the test with PC-12 [3].
On the same counts, the results for `CC(=O)O[C@@]12CO[C@@H]1C[C@H](O)[C@@]1(C)C(=O)[C@H](CCN3CCOCC3)C3=C(C)[C@@H](OC(=O)[C@H](O)[C@@H](NC(=O)OC(C)(C)C)c4ccccc4)C[C@@](O)([C@@H](OC(=O)c4ccccc4)[C@H]21)C3(C)C` are 1.72 ng/mL (≈ 1.9 nM), 0.0763 µg/mL (≈ 84.3 nM) and 21.5 ng/mL (≈ 23.8 nM).
On to `CC(=O)O[C@@]12CO[C@@H]1C[C@H](OCF)C1(C)C(=O)[C@H](CCN3CCOCC3)C3=C(C)[C@@H](OC(=O)[C@H](O)[C@@H](NC(=O)OC(C)(C)C)c4ccccc4)C[C@@](O)([C@@H](OC(=O)c4ccccc4)C12)C3(C)C` (some centres not stated), for which the results for the concentration for 50% growth inhibition (GI50) in the test with PC-6 [1], in the test on PC-6 [2] and in the test with PC-12 [4] were 0.246 ng/mL (≈ 0.263 nM), 0.0404 µg/mL (≈ 43.1 nM) and 1.5 ng/mL (≈ 1.6 nM), respectively.
Turning to `CC(=O)O[C@@]12CO[C@@H]1C=C[C@@]1(C)C(=O)[C@H](CCN3CCOCC3)C3=C(C)[C@@H](OC(=O)[C@H](O)[C@@H](NC(=O)OC(C)(C)C)c4ccccc4)C[C@@](O)([C@@H](OC(=O)c4ccccc4)C12)C3(C)C` (some centres not stated), the GI50 is 0.5 ng/mL (≈ 0.564 nM) in the test with PC-6 [1], 0.018 µg/mL (≈ 20.3 nM) with PC-6 [2] and 0.824 ng/mL (≈ 0.929 nM) in the test on PC-12 [3].
For `CC(=O)O[C@@]12CO[C@@H]1CC[C@@]1(C)C(=O)[C@H](CCN3CCOCC3)C3=C(C)[C@@H](OC(=O)[C@H](O)[C@@H](NC(=O)OC(C)(C)C)c4ccccc4)C[C@@](O)([C@@H](OC(=O)c4ccccc4)C12)C3(C)C` (some centres not stated), in that order: 0.761 ng/mL (≈ 0.856 nM), 0.0204 µg/mL (≈ 22.9 nM) and 1.47 ng/mL (≈ 1.65 nM).
In the case of `CO[C@H]1C[C@H]2OC[C@@]2(OC(C)=O)[C@H]2[C@H](OC(=O)c3ccccc3)[C@]3(O)C[C@H](OC(=O)[C@H](O)[C@@H](NC(=O)OC(C)(C)C)c4ccccc4)C(C)=C([C@@H](CCN4CCOCC4)C(=O)[C@]12C)C3(C)C`, the BWL with Mus musculus [5] is 9.4%; in the test on Mus musculus [6] it was <0%; with Mus musculus [11], 0.9%; in the test with Mus musculus [13], 5%; in the test on Mus musculus [18] it was 18%; in the test with Mus musculus [19], 19.2%. The BWL is on record as <20% in the test on Mus musculus [20], 5.7% with Mus musculus [24] and <1.7% with Mus musculus [28]. Moreover, the GI50 in the test on PC-6 [1] is 0.266 ng/mL (≈ 0.289 nM); with PC-6 [2] it was 0.00901 µg/mL (≈ 9.8 nM); in the test with PC-12 [3], 0.756 ng/mL (≈ 0.823 nM). The IR in the test on Mus musculus [7] is on record as 94.4%; in the test on Mus musculus [8], 99%; with Mus musculus [12], 93.7%; in the test on Mus musculus [16] it was 82.8%; with Mus musculus [17], 98.3%; with Mus musculus [22] it was 98.6%. The IR in the test on Mus musculus [23] was determined as 81.7%; with Mus musculus [29] it was 99.4%; in the test on Mus musculus [31], 96.2%. The Mortality in the test with Mus musculus [9] came to 0; with Mus musculus [10], 5; in the test on Mus musculus [14], 0; in the test with Mus musculus [15], 0; with Mus musculus [21] it was 0; with Mus musculus [25], 0. Further, the results for the Mortality in the test with Mus musculus [26], with Mus musculus [27] and in the test with Mus musculus [30] were 4, 0 and 0, respectively.
Turning to `CC(=O)O[C@@]12CO[C@@H]1CC1C[C@@]13C(=O)[C@H](CCN1CCOCC1)C1=C(C)[C@@H](OC(=O)[C@H](O)[C@@H](NC(=O)OC(C)(C)C)c4ccccc4)C[C@@](O)([C@@H](OC(=O)c4ccccc4)C32)C1(C)C` (some centres not stated), the figures for the GI50 in the test with PC-6 [1], in the test on PC-6 [2] and with PC-12 [3] were 0.873 ng/mL (≈ 0.984 nM), 0.0386 µg/mL (≈ 43.5 nM) and 3.56 ng/mL (≈ 4.01 nM), respectively.
Turning to `CC(=O)O[C@@]12CO[C@@H]1C[C@H](O)[C@@]1(C)C(=O)[C@H](O)C3=C(C)[C@@H](OC(=O)[C@H](O)[C@@H](NC(=O)OC(C)(C)C)c4ccccc4)C[C@@](O)([C@@H](OC(=O)c4ccccc4)[C@H]21)C3(C)C.O.O.O` [DOCETAXEL], the GI50 with PC-6 [1] turned out to be 0.408 ng/mL; with PC-6 [2], 0.0396 µg/mL; with PC-12 [3] it was 11.7 ng/mL. The values for the IR in the test with Mus musculus [32] and in the test with Mus musculus [36] were 6.2% and 95.1%, respectively. Further, the BWL in the test with Mus musculus [33] and with Mus musculus [35] was <0% in each case. Besides, the Mortality in the test with Mus musculus [34] and in the test with Mus musculus [27] was 0 in each case.
